Measurements taken from US6790829B1, “Cyclic decapeptide antibiotics” (priority 1998, dated 2004).
Converted amounts (≈) assume the structure as drawn. Where a SMILES comes first, the peptide text is derived from it. [ ]: non-standard residue; d: D form. Orn = NCCC[C@H](N)C(=O)O

Key:
S. aureus (MRSA) = format: cell-based, Staphylococcus aureus
Method: (§1) Antimicrobial activity was determined by macrobroth dilution antimicrobial susceptibility testing. Solutions of the cyclic decapeptides (Loloatin A, B and C) and a control (vancomycin) were prepared in tryptic soy broth. Initially, a 100 μg/ml solution of each compound was tested. When inhibition of target microorganism was detected, serial two-fold dilutions of the compound in broth were tested to determine the minimal inhibitory concentration (MIC) of each compound for each target organisms. Target organisms tested are listed below in Table 3, and included methicillin resistant Staphylococcus aureus, vancomycin resistant Enterococcus sp. Escherichia coli, multiply drug resistant Pseudomonas aeruginosa; Stenofrophomonas maltophilia and Candida albicans. Turbidity standardized suspensions of each organism were prepared according to accepted protocols using a 0.5 McFarland turbidity standard, and these standardized suspensions were used to inoculate the tubes containing the compounds. Activity of a compound was indicated by lack of growth (turbidity) of one or more of the target organisms. See Woods, G. L. and Washington, J. A., “Antibacterial susceptibility tests: dilution and disk diffusion methods, Manual of Clinical Microbiology (6th Ed.), Murray, Baron, Pfaller, Tenover and Yolken Eds.), ASM Press, Washington D.C., 1995, pp. 1327-1341. Other compounds of the invention may be screened and evaluated for antibiotic activity in the same manner.

[1] = test system: Enterococcus faecalis (13242); assay: microbe, parasite or virus in culture; format: cell-based; settings: for BROTH DILUTION MIC: 13242
Method: as §1

[2] = test system: Enterococcus faecalis (ATCC51299); assay: microbe, parasite or virus in culture; format: cell-based; settings: for BROTH DILUTION MIC: ATCC51299
Method: as §1

[3] = test system: Enterococcus faecium (19007); assay: microbe, parasite or virus in culture; format: cell-based; settings: for BROTH DILUTION MIC: 19007
Method: as §1

[4] = test system: Enterococcus faecium (F4641); assay: microbe, parasite or virus in culture; format: cell-based; settings: for BROTH DILUTION MIC: F4641
Method: as §1

Enterococcus gallinarum = assay: microbe, parasite or virus in culture; format: cell-based
Method: as §1

Candida albicans [5] = format: cell-based
Method: as §1

Enterobacter cloacae [6] = format: cell-based
Method: as §1

Escherichia coli [7] = format: cell-based
Method: as §1

[8] = test system: Group A Streptococcus (19615); format: cell-based
Method: as §1

[9] = test system: Group B Streptococcus (12401); format: cell-based
Method: as §1

Pseudomonas aeruginosa [10] = format: cell-based
Method: as §1

[11] = test system: Stenotrophomonas maltophilia; format: cell-based
Method: as §1

MRSA 034 = assay: In-vitro Microbiology of Fraction 73 (MIC/MBZ); format: cell-based, Staphylococcus aureus
Excerpt: (§2) The complex reaction mixture from Method C was chromatographed on reverse phase HPLC, and a microtiter plate assay was run throughout the entire chromatogram to identify active materials.

P.a. 028 = assay: In-vitro Microbiology of Fraction 73 (MIC/MBZ); format: cell-based, Pseudomonas aeruginosa
Excerpt: as §2

Candida albicans [12] = format: cell-based; remark: listed apart in the source
Method: (§3) Antimicrobial activity was determined by macrobroth dilution antimicrobial susceptibility testing. A solution of Loloatin B was prepared in tryptic soy broth. Initially, a […] solution of the peptide was tested. If inhibition of a target microorganism was detected, serial two-fold dilutions (in broth) of the Loloatin B solutions were tested to determine the minimal inhibitory concentration (MIC) of Loloatin B for each target organism Target organisms tested are identified in Table 2. Turbidity standardized suspensions of each organism were prepared according to accepted protocols using a 0.5 McFarland turbidity standard, and these standardized suspensions were used to inoculate a tube containing Loloatin B. Activity of Loloatin B was indicated by lack of growth (turbidity) of one or more of the target organisms.
(§4) See Woods, G. L. et al., “Antibacterial susceptibility tests: dilution and disk diffusion methods, Manual of Clinical Microbiology (6^thEd.), Murray, Baron, Pfaller, Tenover and Yolken (Eds.), ASM Press, Washington D.C., 1995, pp. 1327-1341.

Enterobacter cloacae [13] = format: cell-based; remark: listed apart in the source
Method: as §3, §4

Escherichia coli [14] = format: cell-based; remark: listed apart in the source
Method: as §3, §4

[15] = test system: Methicillin resistant Staphylococcus aureus; format: cell-based
Method: as §3, §4

[16] = test system: Penicillin resistant Streptococcus pneumoniae; format: cell-based
Method: as §3, §4

Pseudomonas aeruginosa [17] = format: cell-based; remark: listed apart in the source
Method: as §3, §4

[18] = test system: Vancomycin resistant Enterococcus faecalis; format: cell-based
Method: as §3, §4

Xanthomonas maltophilia = format: cell-based
Method: as §3, §4

[19] = Microtiter plate assay of HPLC fractions to identify active materials; format: cell-based; settings: reverse phase HPLC fractions of Method C cyclization mixture
Excerpt: as §2

[20] = Enterococcus faecium, read-out: BROTH DILUTION MIC

BROTH DILUTION MIC (S. aureus (MRSA)) [µg/mL] | BROTH DILUTION MIC [1] [µg/mL] | BROTH DILUTION MIC [2] [µg/mL] | BROTH DILUTION MIC [3] [µg/mL] | BROTH DILUTION MIC [4] [µg/mL] | BROTH DILUTION MIC (Enterococcus gallinarum) [µg/mL] | BROTH DILUTION MIC (Candida albicans [5]) [µg/mL] | BROTH DILUTION MIC (Enterobacter cloacae [6]) [µg/mL] | BROTH DILUTION MIC (Escherichia coli [7]) [µg/mL] | BROTH DILUTION MIC [8] [µg/mL] | BROTH DILUTION MIC [9] [µg/mL] | BROTH DILUTION MIC (Pseudomonas aeruginosa [10]) [µg/mL] | BROTH DILUTION MIC [11] [µg/mL] | SMILES | other results
2 to 4 | 2 to 4 | 2 to 4 | 2 to 4 | 2 to 4 | 2 to 4 | 16 | >100 | >100 | <0.25 | <1 | >100 | >100 | CC(C)C[C@@H]1NC(=O)[C@H](CCCN)NC(=O)[C@H](C(C)C)NC(=O)[C@H](Cc2ccc(O)cc2)NC(=O)[C@H](CC(=O)O)NC(=O)[C@H](CC(N)=O)NC(=O)[C@@H](Cc2ccccc2)NC(=O)[C@H](Cc2ccccc2)NC(=O)[C@@H]2CCCN2C(=O)[C@@H](Cc2ccc(O)cc2)NC1=O [Loloatin A, cyclo[L-Val-L-Orn-L-Leu-D-Tyr-L-Pro-L-Phe-D-Phe-L-Asn-L-Asp-L-Tyr]] (cyclo(DYV[Orn]L[dY]PF[dF]N)) | –
0.5 to 1 | 1 to 2 | 2 to 4 | 2 | 2 | 1 to 2 | 16 | >100 | 1 to 2 | <0.25 | <0.25 | >100 | >100 | CC(C)C[C@@H]1NC(=O)[C@H](CCCN)NC(=O)[C@H](C(C)C)NC(=O)[C@H](Cc2c[nH]c3ccccc23)NC(=O)[C@H](CC(=O)O)NC(=O)[C@H](CC(N)=O)NC(=O)[C@@H](Cc2ccccc2)NC(=O)[C@H](Cc2c[nH]c3ccccc23)NC(=O)[C@@H]2CCCN2C(=O)[C@@H](Cc2ccc(O)cc2)NC1=O [Loloatin C, cyclo [L-Val-L-Orn-L-Leu-D-Tyr-L-Pro-L-Trp-D-Phe-L-Asn-L-Asp-L-Trp]] (cyclo(DWV[Orn]L[dY]PW[dF]N)) | activity against Escherichia coli (in words) (Escherichia coli [7]; Escherichia coli, a gram negative rod bacteria, comment on Table 3): excellent activity
– | – | – | – | – | – | – | – | – | – | – | – | – | CN[C@H](CC(C)C)C(=O)N[C@H]1C(=O)N[C@@H](CC(N)=O)C(=O)N[C@H]2C(=O)N[C@H]3C(=O)N[C@H](C(=O)N[C@H](C(=O)O)c4cc(O)cc(O)c4-c4cc3ccc4O)[C@H](O)c3ccc(c(Cl)c3)Oc3cc2cc(c3O[C@@H]2O[C@H](CO)[C@@H](O)[C@H](O)[C@H]2O[C@H]2C[C@](C)(N)[C@H](O)[C@H](C)O2)Oc2ccc(cc2Cl)[C@H]1O [Vancomycin, vancomycin, reference compound] | MIC ([1]; Enterococcus faecalis, read-out: BROTH DILUTION MIC): > 100 µg/mL; MIC ([2]; Enterococcus faecalis, ATCC51299, read-out: BROTH DILUTION MIC): 20 µg/mL (≈ 13.8 µM); MIC [3, 20]: > 100 µg/mL; MIC [4, 20]: 6 µg/mL (≈ 4.14 µM); MIC (Enterococcus gallinarum; Enterococcus gallinarum, GALLINARUM, read-out: BROTH DILUTION MIC): 6 µg/mL (≈ 4.14 µM)

SMILES | BROTH DILUTION MIC (S. aureus (MRSA)) [µg/mL] | BROTH DILUTION MIC [1] [µg/mL] | BROTH DILUTION MIC [2] [µg/mL] | BROTH DILUTION MIC [3] [µg/mL] | BROTH DILUTION MIC [4] [µg/mL] | BROTH DILUTION MIC (Enterococcus gallinarum) [µg/mL] | BROTH DILUTION MIC (Candida albicans [5]) [µg/mL] | BROTH DILUTION MIC (Enterobacter cloacae [6]) [µg/mL] | BROTH DILUTION MIC (Escherichia coli [7]) [µg/mL] | BROTH DILUTION MIC [8] [µg/mL] | BROTH DILUTION MIC [9] [µg/mL] | BROTH DILUTION MIC (Pseudomonas aeruginosa [10]) [µg/mL] | BROTH DILUTION MIC [11] [µg/mL] | other results
CC(C)C[C@@H]1NC(=O)[C@H](CCCN)NC(=O)[C@H](C(C)C)NC(=O)[C@H](Cc2c[nH]c3ccccc23)NC(=O)[C@H](CC(=O)O)NC(=O)[C@H](CC(N)=O)NC(=O)[C@@H](Cc2ccccc2)NC(=O)[C@H](Cc2ccccc2)NC(=O)[C@@H]2CCCN2C(=O)[C@@H](Cc2ccc(O)cc2)NC1=O [Loloatin B, cyclo [L-Val-L-Orn-L-Leu-D-Tyr-L-Pro-L-Phe-D-Phe-L-Asn-L-Asp-L-Trp]] (cyclo(V[Orn]L[dY]PF[dF]NDW)) | 2 to 4 | 2 to 4 | 2 to 4 | 2 to 4 | 2 to 4 | 2 to 4 | 16 | >100 | >100 | <0.25 | <1 | – | >100 | MBZ (MRSA 034): 8.0; MIC (MRSA 034): 8.0; MBZ (P.a. 028): >128; MIC (P.a. 028): >128; Minimum Inhibitory Concentration (Candida albicans [12]): >100 µg/mL; Minimum Inhibitory Concentration (Enterobacter cloacae [13]): >100 µg/mL; Minimum Inhibitory Concentration (Escherichia coli [14]): >100 µg/mL; Minimum Inhibitory Concentration [15]: <2 µg/mL; Minimum Inhibitory Concentration [16]: <2 µg/mL; Minimum Inhibitory Concentration (Pseudomonas aeruginosa [17]): >100 µg/mL; Minimum Inhibitory Concentration [18]: <2 µg/mL; Minimum Inhibitory Concentration (Xanthomonas maltophilia): >100 µg/mL; biological activity of HPLC fraction (in words) [19]: exhibited the desired biological activity
